According to US8633250B2, “Cell repair and regeneration by suramin and related polysulfonated napthylureas” (MUSC Foundation for Research Development, priority 2006, dated 2014):

What was measured:
[1] = system: renal proximal tubule cells (RPTC); assay: Cell cycle analysis by flow cytometry: number of RPTC in S-phase; assay type: cell-based, rabbit; details: for effect of inhibitor on suramin-induced RPTC proliferation (number of RPTC in S-phase): 50 μM suramin 24 hr, 20 μM LY294002, 10 μM U0126 or 10 μM PP1
Protocol: (§1) Isolation and culture of renal proximal tubules: Isolation and culture of renal proximal tubules were performed as described previously (Rodeheaver et al., 1990; Nowak and Schnellmann, 1995; Nowak and Schnellmann, 1996). Female New Zealand White rabbits (1.5-2.5 kg) were purchased from Myrtle's Rabbitry (Thompson Station, Tenn.). RPTC were isolated using the iron oxide perfusion method and grown in 6-well tissue culture dishes under improved conditions. The culture medium was an 1:1 mixture of DMEM/Ham's F-12 (without glucose, phenol red, or sodium pyruvate) supplemented with 15 mM HEPES buffer, 2.5 mM L-glutamine, 1 μM pyridoxine HCl, 15 mM sodium bicarbonate, and 6 mM lactate. Hydrocortisone (50 μM), selenium (5 ng/ml), human transferrin (5 μg/ml) bovine insulin (10 nM) and L-ascorbic acid-2-phosphate (50 μM) were added daily to fresh culture medium.
(§2) Isolated tubules were plated at 1 mg protein/well in a 6-well plate. On day 2, RPTC were incubated in the presence and absence of various pharmacological inhibitors for different time periods as indicated in the figure legends. For some experiments, suramin was added to RPTC on day 3 and then incubated for 24 hr in the presence or absence of various inhibitors before samples were taken.
Cell cycle analysis: Cell cycle phase was determined using flow cytometry as previously described (Zhuang et al., 2004). Cells were harvested, stained with propidium iodide and the number of cells in S-phase of cell cycle determined.

[2] = system: renal proximal tubule cells (RPTC); assay: MTT assay of RPTC proliferation; assay type: cell-based, rabbit; details: for effect of inhibitor on suramin-induced RPTC proliferation (MTT assay): 50 μM suramin 48 hr, 10 μM AG1478, 20 μM LY294002, 10 μM U0126 or 10 μM PP1
Protocol: as §1, with “[…],” for “Schnellmann,”, “medium. Isolated tubules were plated at 1 mg protein/well in a 6-well plate. On day 2, RPTC were incubated in the presence and absence of various pharmacological inhibitors for different time periods as indicated in the figure legends. […] MTT assay: The 3-(4,5-dimethylthiazol-2-yl)-2,5-diphenyl-tetrazolium bromide (MTT) assay was used to assess cell proliferation (Kooistra et al., 1997; […] et al., 2002). Following a 48 hr exposure to various inhibitors or diluents, MTT was added (final concentration of 0.5 mg/ml) to individual cultures for an additional 30 min. Tetrazolium was released by dimethyl sulfoxide and optical density was determined with a spectrophotometer (570 nm). Data were normalized to diluent-treated cultures.” for “medium.”

[3] = system: renal proximal tubule cells (RPTC); assay: RPTC scattering, fibroblast-like morphology and lamellipodia (bright field, phalloidin staining); assay type: cell-based, rabbit; details: for effect of inhibitor on suramin-induced fibroblast-like phenotype and RPTC scattering: 50 μM suramin 24 hr, 10 μM AG1478, 20 μM LY294002, 10 μM U0126 or 10 μM PP1
Protocol: as §1, §2
Immunocytochemistry: After various treatments, RPTC were fixed with 10% buffered formalin, washed, permeabilized, and blocked with BSA. Fluorescein conjugated phalloidin was added and RPTC visualized by fluorescent microscopy.

Akt = assay: Immunoblot of Akt phosphorylation in RPTC; assay type: cell-based, rabbit; details: for effect of inhibitor on Akt phosphorylation: pretreated 1 hr with 20 μM LY294002, or 10 μM PP1, or AG1478, 50 μM suramin 30 min
Protocol: (§3) Preparation of cell lysates and immunoblot analysis: After different treatments, RPTC were washed twice with PBS and harvested in lysis buffer (0.25 M Tris-HCl, pH 6.8, 4% SDS, 10% glycerol, 1 mg/ml bromophenol blue, and 0.5% 2-mercaptoethanol). Cells were disrupted by sonication for 15 seconds and lysates stored at −20 °C. Equal amounts of cellular protein lysate were separated on 10% polyacrylamide gels and transferred to nitrocellulose membranes. After treatment with 5% skim milk at 4 °C overnight, membranes were incubated with various antibodies for 1 hr, and then incubated with an appropriate horseradish-peroxidase conjugated secondary antibody (Amersham, Piscataway, N.J.). Bound antibodies were visualized following chemiluminescence detection on autoradiographic film.
We evaluated whether the PI3K/Akt and/or ERK1/2 pathways are activated in RPTC in response to suramin. The activation of the PI3K and ERK1/2 pathways was measured using immunoblot analysis and antibodies that recognize phosphorylated Akt at serine 473 (a target of PI3K) and ERK1/2, respectively. Total Akt and ERK1/2 content was measured using immunoblot analysis and antibodies that recognize the Akt and ERK1/2 independent of their phosphorylation state to control for gel loading. Suramin-induced Akt phosphorylation within 10 min, reached a maximum at 30 min and was sustained through 120 min of treatment (FIG. 6A). ERK1/2 phosphorylation also was induced within 10 min and maximal at 30 min, but decreased to the control levels at 120 min.

Src = assay: Immunoblot of Src phosphorylation (Tyr416, Tyr527) in RPTC; assay type: cell-based, rabbit
Protocol: as §3
To determine whether suramin activates Src and whether Src mediates Akt activation, we examined the effect of suramin on Src phosphorylation and the effect of PP1 on suramin-induced Akt phosphorylation. Src activation requires dephosphorylation of tyrosine 527 (Zheng et al., 2000) and phosphorylation of tyrosine 416 in the catalytic domain (Leu and Maa, 2003). Src phosphorylation at tyrosine 416 was detected in control samples. Following suramin-treatment, Src phosphorylation increased within 10 min and returned to the basal level at 60 min (FIG. 8A). […] Thus, suramin-induced RPTC proliferation and scattering is dependent on Src activity and Src is required for activation of the PI3K/Akt signaling pathway.

[4] = system: renal proximal tubule cells (RPTC); assay: RPTC outgrowth from plated renal proximal tubules (photographs); assay type: cell-based, rabbit; details: after 24 hr exposed for 24 hr, 50 μM suramin, 10 ng/ml EGF or suramin+EGF
Protocol: as §1, §2

EGF receptor = assay: Immunoblot of EGF receptor phosphorylation (Tyr1068) in RPTC; assay type: cell-based, rabbit
Protocol: as §3
To determine whether suramin caused EGF receptor activation, we performed immunoblot analysis using an antibody against phosphorylated tyrosine 1068 of the EGF receptor. Total EGF receptor content was measured using immunoblot analysis and an antibody that recognizes the EGF receptor independent of its phosphorylation state to control for gel loading. […] Thus, suramin induced RPTC proliferation and scattering is not through the EGF receptor.

ERK1/2 = assay: Immunoblot of ERK1/2 phosphorylation in RPTC; assay type: cell-based, rabbit
Protocol: as §3
We evaluated whether the PI3K/Akt and/or ERK1/2 pathways are activated in RPTC in response to suramin. The activation of the PI3K and ERK1/2 pathways was measured using immunoblot analysis and antibodies that recognize phosphorylated Akt at serine 473 (a target of PI3K) and ERK1/2, respectively. Total Akt and ERK1/2 content was measured using immunoblot analysis and antibodies that recognize the Akt and ERK1/2 independent of their phosphorylation state to control for gel loading.

[5] = system: mouse renal ischemic/reperfusion (I/R) acute renal failure model; assay: Mouse renal ischemic/reperfusion (I/R) acute renal failure model, serum creatinine; assay type: in vivo
Protocol: Experiments were designed to investigate whether suramin stimulated recovery of renal function in a mouse renal ischemic/reperfusion (I/R) acute renal failure model. Male C57BL/6 mice weighing 25-30 g were subjected to I/R injury using bilateral renal artery clamping for 26 min and then allowed to recover over time. The renal pedicles were isolated, but no clamps were applied in the sham group. Some mice subjected to I/R were treated with a single intravenous dose of suramin (0.001-10 mg/kg) or diluent 24 hr after reperfusion. Blood was collected at 24 and 48 hr after injury and serum creatinine levels measured as a marker of acute renal failure.

## Cc1ccc(-c2nn(C(C)(C)C)c3ncnc(N)c23)cc1 [PP1]
[1]
  effect of inhibitor on suramin-induced RPTC proliferation (number of RPTC in S-phase): inhibited RPTC proliferation in control and suramin-treated cells
[2]
  effect of inhibitor on suramin-induced RPTC proliferation (MTT assay): inhibited RPTC proliferation in control and suramin-treated cells
[3]
  effect of inhibitor on suramin-induced fibroblast-like phenotype and RPTC scattering: blocked
Akt
  effect of inhibitor on Akt phosphorylation: blocked suramin-induced phosphorylation of Akt
Src; PP1, suramin-treated RPTC
  effect of inhibitor on suramin-induced Src phosphorylation: inhibition of suramin-induced Src and Akt phosphorylation

## Cc1ccc(C(=O)Nc2ccc(S(=O)(=O)O)c3cc(S(=O)(=O)O)cc(S(=O)(=O)O)c23)cc1NC(=O)c1cccc(NC(=O)Nc2cccc(C(=O)Nc3cc(C(=O)Nc4ccc(S(=O)(=O)O)c5cc(S(=O)(=O)O)cc(S(=O)(=O)O)c45)ccc3C)c2)c1 [suramin]
[4]
  RPTC outgrowth: stimulated RPTC outgrowth
[1]; 100 μM suramin, 24 hr, compared with 50 μM
  RPTC proliferation (S-phase): did not further increase RPTC proliferation
[1]; 24 hr treatment, four days following plating, suramin 50 μM, EGF 10 ng/ml, untreated approximately 20%
  RPTC in S-phase: 29%
[1]; suramin concentrations lower than 50 μM, 24 hr
  number of RPTC in S-phase: did not statistically increase the number of RPTC in S-phase
[2]; 48 hr exposure, 50 μM suramin, versus diluent controls
  increase in the number of RPTC (MTT assay): approximately 40%
[3]; 50 μM suramin or 10 ng/ml EGF, 24 hr, phalloidin staining
  formation of lamellipodia and intercellular contacts: increased the formation of lamellipodia and decreased intercellular contacts
[3]; 50 μM suramin, 24 hr, RPTC cultured 3 days
  RPTC morphology at the edge of the cell island (scattering): lost contact with their neighbors and became elongated, fibroblast-like cells
EGF receptor; 50 μM suramin, 10 ng/ml EGF or both for 10 min
  EGF receptor phosphorylation (tyrosine 1068): did not detect phosphorylated EGF receptor
Akt; 50 μM suramin, 0-120 min
  Akt phosphorylation sustained through: ≥ 120 min
  time of maximum Akt phosphorylation: 30 min
  time to induction of Akt phosphorylation: ≤ 10 min
ERK1/2; 50 μM suramin, 0-120 min
  time at which ERK1/2 phosphorylation decreased to the control levels: 120 min
  time of maximal ERK1/2 phosphorylation: 30 min
  time to induction of ERK1/2 phosphorylation: ≤ 10 min
Src; 50 μM suramin
  reduced phosphorylation of Src at tyrosine 527 sustained through: ≥ 120 min
  time at which Src phosphorylation (tyrosine 416) returned to the basal level: 60 min
  time to increase of Src phosphorylation at tyrosine 416: ≤ 10 min
  time to reduced phosphorylation of Src at tyrosine 527: ≤ 5 min
[5]; doses of suramin greater than or equal to 0.1 mg/kg, single intravenous dose 24 hr after reperfusion
  renal function: completely restored renal function
[5]; low doses (0.1 mg/kg), given after acute renal failure is fully established
  recovery of renal function: complete recovery of renal function
[5]; single intravenous suramin dose between 0.003 and 0.03 mg/kg 24 hr after reperfusion, I/R plus diluent approximately 2 mg/dl
  serum creatinine levels: approximately 1 mg/dl

## O=c1cc(N2CCOCC2)oc2c(-c3ccccc3)cccc12 [LY294002, 2-(4-Morpholinyl)-8-phenyl-4H-1-benzopyran-4-one]
[1]
  effect of inhibitor on suramin-induced RPTC proliferation (number of RPTC in S-phase): decreased suramin-induced proliferation
[2]
  effect of inhibitor on suramin-induced RPTC proliferation (MTT assay): decreased suramin-induced proliferation
[3]
  effect of inhibitor on suramin-induced fibroblast-like phenotype and RPTC scattering: partially inhibited
Akt
  effect of inhibitor on Akt phosphorylation: blocked Akt phosphorylation

## N#CC(=C(N)Sc1ccccc1N)C(C#N)=C(N)Sc1ccccc1N [U0126, 1,4-Diamino-2,3-dicyano-1,4-bis(2-aminophenylthio)butadiene]
[1]
  effect of inhibitor on suramin-induced RPTC proliferation (number of RPTC in S-phase): had no effect on proliferation
[2]
  effect of inhibitor on suramin-induced RPTC proliferation (MTT assay): had no effect on proliferation
[3]
  effect of inhibitor on suramin-induced fibroblast-like phenotype and RPTC scattering: had no effect
ERK1/2; pretreated with 10 μM U0126 for 1 hr, presence and absence of 50 μM suramin (30 min)
  effect of inhibitor on ERK1/2 phosphorylation: blocked ERK1/2 phosphorylation

## COc1cc2ncnc(Nc3cccc(Cl)c3)c2cc1OC [AG1478, 4-(3-chloroanilino)-6,7-dimethoxyquinazoline]
[2]
  effect of inhibitor on suramin-induced RPTC proliferation (MTT assay): did not affect suramin-induced RPTC proliferation
[3]; 10 ng/ml EGF 24 hr, 10 μM AG1478
  effect of inhibitor on EGF-induced fibroblast-like phenotype and scattering: blocked EGF-induced formation of the fibroblast-like phenotype and scattering
[3]
  effect of inhibitor on suramin-induced fibroblast-like phenotype and RPTC scattering: did not affect suramin-induced formation of the fibroblast-like phenotype and scattering
EGF receptor; pretreated with 10 μM AG1478 for 1 hr, then EGF 10 min
  effect of inhibitor on EGF-induced EGF receptor phosphorylation: inhibited EGF-induced EGF receptor phosphorylation
Akt
  effect of inhibitor on Akt phosphorylation: did not affect suramin-induced phosphorylation of Akt
